According to patent publication US9394555B2, “Compositions comprising a polypeptide having cellulolytic enhancing activity and a dioxy compound and uses thereof” (priority 2010, dated 2016):

B1: T. aurantiacus GH61A polypeptide: GH61A polypeptide having cellulolytic enhancing activity (SEQ ID NO: 14), recombinantly produced in Aspergillus oryzae JaL250 (protein, listed as Thermoascus aurantiacus)
chain: MSFSKIIATAGVLASASLVAGHGFVQNIVIDGKYYGGYLVNQYPYMSNPPEVIAWSTTATDLGFVDGTGYQTPDIICHRGAKPGALTAPVSPGGTVELQWTPWPDSHHGPVINYLAPCNGDCSTVDKTQLEFFKIAESGLINDDNPPGIWASDNLIAANNSWTVTIPTTIAPGNYVLRHEIIALHSAQNQDGAQNYPQCINLQVTGGGSDNPAGTLGTALYHDTDPGILINIYQKLSSYIIPGPPLYTG

Experiments:
Format in all cases: biochemical
[1] = tested on: Thielavia terrestris GH61E polypeptide; test: Variable pH PASC conversion assay (Examples 29, 30) with Thielavia terrestris GH61E polypeptide; conditions: gallic acid 0.2% w/w + Thielavia terrestris GH61E polypeptide (10 mg/g) + beta-glucosidase (10 mg/g), 72 hours, 50° C.
[2] = target: Trichoderma reesei GH61B polypeptide (Trichoderma reesei, UniProt Q7Z9M7); test: Variable pH PASC conversion assay (Examples 29, 30) with Trichoderma reesei GH61B polypeptide; conditions: gallic acid 0.2% w/w + Trichoderma reesei GH61B polypeptide (10 mg/g) + beta-glucosidase (10 mg/g), 72 hours, 50° C.
[3] = target: T1, T. aurantiacus GH61A polypeptide (Thermoascus aurantiacus, UniProt G3XAP7, N13Y); test: Phosphoric acid swollen cellulose (PASC) conversion assay (Examples 20, 21); conditions: 72 hours, 50° C.
Method: A 1.0% PASC slurry was prepared as described in Example 17. Ten ml of the 1.0% PASC slurry, 10 ml of H2O, and […] of dioxy compound were thoroughly mixed by shaking,
Five hundred μl aliquots of the 0.50% phosphoric acid swollen cellulose/0.05% dioxy compound slurry were pipetted into wells of a 2.0 ml 96-deepwell plate (Axygen, Union City, Calif., USA) using a 1000 μl micropipette with a wide aperture tip (end of tip cut off about 2 mm from the base). One hundred μl of 10 mM MnSO4-500 mM sodium acetate pH 5 were then added to each well. Two hundred μl of deionized water were added to each well. Enzyme mixtures were prepared and then added simultaneously to all wells in a volume of 200 μl, for a total of 1 ml in each reaction. […] All experiments reported were performed in triplicate.
Primary analysis of the hydrolysis reactions was performed using an AGILENT® 1100 HPLC with CHEMSTATION® software equipped with an AMINEX™ HPX-87H column. After approximately 4 days, the deep-well plate was removed from the incubator and chilled overnight to 4° C. The plate was then mixed well by inversion and briefly centrifuged 52×g in a SORVALL® RT7 centrifuge for 10 seconds. Samples were then mixed by pipetting, and 200 μl from each well were transferred to a MULTISCREEN® HV centrifuge filter plate assembly. The centrifuge filter plate assembly was centrifuged at 2000 rpm in a SORVALL® RT7 centrifuge for 20 minutes. […] Sugars were detected using a refractive index detector with quantification by integration compared to purified sugar standards.
All HPLC data processing was performed using MICROSOFT EXCEL™ software. […] In this assay only glucose was measured since beta-glucosidase was at high levels in all samples but the controls. Percent conversion was calculated using Equation 1. Triplicate data points were averaged and standard deviation was calculated.
The PASC assay was performed as described in Example 20.
Data were collected and analyzed, as described in Example 20, after 72 hours of incubation at 50° C.

[4] = target: T1, T. aurantiacus GH61A polypeptide; test: Microcrystalline cellulose conversion assay I (Examples 8, 9) with T. aurantiacus GH61A polypeptide; conditions: T. aurantiacus GH61A polypeptide (10 mg per g cellulose) + endoglucanase II + beta-glucosidase (5 mg/g each), no dioxy compound, 96 hours
Method: A 5% microcrystalline cellulose slurry was prepared by addition of 2.5 g of AVICEL®PH101 (Sigma-Aldrich, St. Louis, Mo., USA) to a graduated 50 ml screw-cap conical tube followed by 15 ml of 1 M sodium acetate pH 5 and 1 ml of 100 mM MnSO4 and approximately 20 ml of deionizer water. Each conical tube was then mixed thoroughly by shaking/vortexing, and adjusted to 50 ml total with deionized water and mixed again. Contents of the tube were then quickly transferred to a 100 ml beaker and stirred rapidly with a magnetic stirrer. […]
After approximately 4 days, the deep-well plate was removed from the incubator and chilled overnight to 4° C. […] Sugars were detected using a refractive index detector (Agilent Technologies, Inc., Santa Clara, Calif., USA) with quantification by integration compared to purified sugar standards.
In this assay only glucose was measured since beta-glucosidase was at high levels in all samples but the controls.
A limit digest was performed to determine the total concentration accessible glucose equivalents using 100 mg of T. reesei cellulase (CELLIC™ CTec, Novozymes A/S, Bagsvaerd, Denmark) per gram cellulose, Triplicate data points were averaged and standard deviation was calculated.

Sequence of Trichoderma reesei GH61B polypeptide (Q7Z9M7 20-249): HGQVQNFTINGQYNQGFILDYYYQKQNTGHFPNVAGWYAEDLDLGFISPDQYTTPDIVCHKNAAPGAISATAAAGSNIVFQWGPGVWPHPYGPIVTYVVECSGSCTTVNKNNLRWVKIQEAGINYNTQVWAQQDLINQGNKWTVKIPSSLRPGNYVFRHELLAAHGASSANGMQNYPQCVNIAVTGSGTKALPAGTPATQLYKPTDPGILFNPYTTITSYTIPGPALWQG

Row | Molecule | conversion of phosphoric acid swollen cellulose ([1]; pH 4) [%] | conversion of phosphoric acid swollen cellulose ([1]; pH 5) [%] | conversion of phosphoric acid swollen cellulose ([1]; pH 6) [%] | conversion of phosphoric acid swollen cellulose ([1]; pH 7.5) [%] | conversion of phosphoric acid swollen cellulose ([2]; pH 4) [%] | conversion of phosphoric acid swollen cellulose ([2]; pH 5) [%] | conversion of phosphoric acid swollen cellulose ([2]; pH 6) [%] | conversion of phosphoric acid swollen cellulose ([2]; pH 7.5) [%] | conversion of phosphoric acid swollen cellulose ([3]; T. aurantiacus GH61A polypeptide (20 mg/g) + A. oryzae CEL3A beta-glucosidase (20 mg/g), no dioxy compound) [%] | conversion of PASC ([3]; T. aurantiacus GH61A polypeptide (20 mg/g) alone) [%] | conversion of microcrystalline cellulose ([4]; 50° C.) [%] | conversion of microcrystalline cellulose ([4]; 60° C.) [%]
1 | O=C(O)c1cc(O)c(O)c(O)c1 [gallic acid] | 36.3±3.2 | 41.7±3.9 | 33.7±0.2 | 23.8±3.0 | 13.6±0.2 | 15.9±0.6 | 12.7±0.4 | 3.9±1.0 | – | – | – | –
2 | B1 | – | – | – | – | – | – | – | – | 2.3±0.6 | 1.5±1.1 | 2.2±0.1 | 2.6±0.1
